These results are taken from US20070225344A1, “Sulfonamide derivatives to treat infection with hepatitis C virus” (priority 2006, published 2007).

pIC50: −log10 of the molar value.

T1 sequence (P26663 2420-2997, looked up, natural form): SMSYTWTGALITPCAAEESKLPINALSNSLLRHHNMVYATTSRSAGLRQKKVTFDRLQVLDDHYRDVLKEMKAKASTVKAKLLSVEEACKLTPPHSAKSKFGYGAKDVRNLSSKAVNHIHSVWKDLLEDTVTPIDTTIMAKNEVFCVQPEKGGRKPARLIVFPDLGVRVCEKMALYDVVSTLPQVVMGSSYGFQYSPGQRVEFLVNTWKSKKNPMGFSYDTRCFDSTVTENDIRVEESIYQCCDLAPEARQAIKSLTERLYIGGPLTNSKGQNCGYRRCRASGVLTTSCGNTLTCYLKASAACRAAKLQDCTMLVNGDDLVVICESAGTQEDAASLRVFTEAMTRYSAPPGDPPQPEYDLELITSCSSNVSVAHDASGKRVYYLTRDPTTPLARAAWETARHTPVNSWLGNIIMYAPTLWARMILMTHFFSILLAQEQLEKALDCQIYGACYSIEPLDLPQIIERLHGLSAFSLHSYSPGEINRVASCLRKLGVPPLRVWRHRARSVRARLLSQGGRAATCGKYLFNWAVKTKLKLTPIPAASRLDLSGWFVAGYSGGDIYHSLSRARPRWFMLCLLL

This experiment concerns the target T1, HCV RdRp NS5B d21BK (BK strain, 1b subtype) (Hepatitis C virus genotype 1b, UniProt P26663).
T1 construct: NS5B from the BK strain (1b subtype) is expressed in E. coli as a protein in which the 21 C-terminal amino acids are replaced; made in house; host or cells: E. coli
Put plainly: HCV polymerase (NS5B) RNA-dependent RNA polymerase inhibition, 33P-GTP filter assay. The format is biochemical. The note with it: in vitro; NS5B BK strain (1b subtype), 24 nM enzyme, 2 h at room temperature; read-out: HCV Polymerase Median IC50. An excerpt: The ability of the compounds of the present invention to inhibit hepatitis C polymerase was established by the following experimental procedure:
NS5B from the BK strain (1b subtype) is expressed in E. coli as a protein in which the 21 C-terminal amino acids are replaced with a short linker and a hexahistidine tag (GSHHHHHH). The purified protein is mixed with radioactive nucleotides and allowed to replicate a heteropolymeric RNA substrate, primed by an endogenous short hairpin, resulting in an approximately 760 nt product. The radioactive product is captured on a filter and quantitated after removal of the unincorporated nucleotides.
(1) Compounds 10 μl at 10 μg/ml in 15% DMSO
Add 20 μl enzyme mix into each well of the assay plate. Incubate compound and enzyme at room temperature for 15 minutes.
(3) Template Mix—Prepare Ahead.
Spin down a tube of RNA (5 μg/tube stored in 75% ethanol and 0.3 M sodium acetate) in a microcentrifuge for 20 min. at 4° C. One tube is enough for 1 to 1½ plates. Remove as much ethanol from the tube as possible by inverting the tube. Be gentle, pellet RNA may not adhere to the tube. Vacuum dry the RNA. Resuspend the RNA by adding 1 ml of DEPC water, close the cap of the tube tightly. To dissolve RNA, incubate RNA solution on ice for ˜60 min. and gently vortex. Spin briefly to ensure all RNA solution is down to the bottom of the tube before opening cap. Gently transfer RNA solution into a 5 ml or larger tube. Add another 3 ml of DEPC water (total 4 ml of volume).
Add the following volumes of reagents.
Add 20 μl template mix per reaction (i.e. 20 ng of POF per reaction or ˜3 nM)
(4) Incubate reaction at room temperature (22-25° C.) for 2 hours.
(5) Stop reaction by adding 50 μl of 170 mM EDTA.
Final concentration of EDTA is 85 mM.
(6) Prewet filters of Millipore Multiscreen filter plate by adding 200 μl of 0.5 M sodium phosphate buffer, pH 7.0 into each well. Let stand at room temperature for 2-3 min.
(7) Place the Multiscreen filter plate onto a Millipore Manifold and turn on vacuum to allow buffer to flow through. Turn off vacuum. Transfer 80 μl of the reaction product into each well of the filter plate. Let stand for 2-3 min. Turn on vacuum to filter reaction product.
(8) Turn off vacuum. Add 200 μl of 0.5 M sodium phosphate buffer, pH 7.0 into each well to wash filter. Turn on vacuum.
Repeat step (8) three more times.
(9) Remove polypropylene bottom. Spot dry filter at the bottom with paper towel. Air dry filter plate on a bench for 1 hr. Add 40 μl Super Mix scintillant. Seal top of the plate with a tape. Place plate into a Packard carrier or MicroBeta carrier.
(10) Count plate using a Packard Topcount or MicroBeta counter. Program 10 for ^33P in Top count or ^33P program in micro-beta.
Percent inhibition is calculated after background subtraction as a percent reduction of activity relative to the positive control (average value of the plate excluding the negative controls).
Regarding `O=S(=O)(c1cc(Cl)cc(Cl)c1O)N1CCC[C@H]1CO` [Example 21, 2,4-dichloro-6-{[(2S)-2-(hydroxymethyl)pyrrolidin-1-yl]sulfonyl}phenol], the pIC50 was 5.21.
For `O=C(O)[C@@H]1CCCCN1S(=O)(=O)c1cc(F)cc(Cl)c1O` [Example 41, (2S)-1-[(3-chloro-5-fluoro-2-hydroxyphenyl)sulfonyl]piperidine-2-carboxylic acid] the value was 5.72; for `O=C(O)[C@@H]1CCCN1S(=O)(=O)c1cc(Cl)c(Cl)c(Cl)c1O` [Example 4, 1-[(3,4,5-trichloro-2-hydroxyphenyl)sulfonyl]-L-proline], 7.10; for `O=C(O)[C@H]1CCCCN1S(=O)(=O)c1cc(Cl)cc(Cl)c1O` [Example 42, (2R)-1-[(3,5-dichloro-2-hydroxyphenyl)sulfonyl]piperidine-2-carboxylic acid], 5.70.
To `O=S(=O)(c1cc(Cl)cc(Cl)c1O)N1CCC[C@H]1c1nn[nH]n1` [Example 1, 2,4-dichloro-6-{[(2S)-2-(2H-tetrazol-5-yl)pyrrolidin-1-yl]sulfonyl}phenol] belongs 6.25; to `Cc1cc(S(=O)(=O)N2C[C@@H](O)C[C@@H]2C(=O)O)c(N)cc1Cl` [Example 24, (4S)-1-[(2-amino-4-chloro-5-methylphenyl)sulfonyl]-4-hydroxy-D-proline], 5.29; to `CO[C@@H]1C[C@@H](C(=O)O)N(S(=O)(=O)c2cc(Cl)cc(Cl)c2O)C1` [Example 12, (4R)-1-[(3,5-dichloro-2-hydroxyphenyl)sulfonyl]-4-methoxy-L-proline], 6.04.
For `O=C(O)[C@H]1CCCCN1S(=O)(=O)c1cc(Cl)cc(Br)c1O` [Example 40, (2R)-1-[(3-bromo-5-chloro-2-hydroxyphenyl)sulfonyl]piperidine-2-carboxylic acid] the value was 5.94; for `Cc1cc(N)c(S(=O)(=O)N2CSC[C@@H]2C(=O)O)cc1Cl` [Example 53, (4S)-3-[(2-amino-5-chloro-4-methylphenyl)sulfonyl]-1,3-thiazolidine-4-carboxylic acid], 5.52.
Turning to `Cc1cc(NC(=O)c2cccs2)c(S(=O)(=O)N2CCC[C@H]2C(=O)O)cc1Cl` [Example 26, 1-({5-chloro-4-methyl-2-[(2-thienylcarbonyl)amino]phenyl}sulfonyl)-L-proline], the negative logarithm of the IC50 (pIC50) is 5.16.
For `Cc1cc(N)c(S(=O)(=O)N2CCC[C@H]2C(=O)O)cc1Cl` [Example 20, 1-[(2-amino-5-chloro-4-methylphenyl)sulfonyl]-L-proline] the value was 5.23; for `O=C(O)[C@H]1CCCN1S(=O)(=O)c1cc(Br)cc(Br)c1O` [Example 27, 1-[(3,5-dibromo-2-hydroxyphenyl)sulfonyl]-D-proline], 5.15.
For `Cc1cc(NC(=O)C2CC2)c(S(=O)(=O)N2CCC[C@H]2C(=O)O)cc1Cl` [Example 33, 1-({5-chloro-2-[(cyclopropylcarbonyl)amino]-4-methylphenyl}sulfonyl)-L-proline] the value was 5.06; for `Cc1cc(NC(=O)c2ccccc2)c(S(=O)(=O)N2CCC[C@H]2C(=O)O)cc1Cl` [Example 34, 1-{[2-(benzoylamino)-5-chloro-4-methylphenyl]sulfonyl}-L-proline], 5.00; for `Cc1cc(N)c(S(=O)(=O)N2C[C@H](O)C[C@H]2C(=O)O)cc1Cl` [Example 25, (4R)1-[(2-amino-5-chloro-4-methylphenyl)sulfonyl]-4-hydroxy-L-proline], 5.12.
For `Cc1ccc(S(=O)(=O)N2CCC[C@H]2C(=O)O)cc1Cl` [Example 35, 1-[(3-chloro-4-methylphenyl)sulfonyl]-L-proline] the value was 4.99; for `O=C(O)[C@H]1CCCN1S(=O)(=O)c1cc(Cl)c(Cl)c(Cl)c1O` [Example 13, 1-[(3,4,5-trichloro-2-hydroxyphenyl)sulfonyl]-D-proline], 5.93.
On to `O=S(=O)(c1cc(Cl)cc(Cl)c1O)N1CCCC1` [Example 23, 2,4-dichloro-6-(pyrrolidin-1-ylsulfonyl)phenol], for which the negative logarithm of the IC50 (pIC50) is 5.31.
To `Cc1cc(S(=O)(=O)N2C[C@H](O)C[C@H]2C(=O)O)c(N)cc1Cl` [Example 28, (4R)-1-[(2-amino-4-chloro-5-methylphenyl)sulfonyl]-4-hydroxy-L-proline] belongs 5.00; to `O=C(O)[C@@H]1CSCN1S(=O)(=O)c1cc(Cl)c(Cl)c(Cl)c1O` [Example 45, (4R)-3-[(3,4,5-trichloro-2-hydroxyphenyl)sulfonyl]-1,3-thiazolidine-4-carboxylic acid], 7.30; to `Cc1cc(N)c(S(=O)(=O)N2CCC[C@@H]2C(=O)O)cc1Cl` [Example 17, 1-[(2-amino-5-chloro-4-methylphenyl)sulfonyl]-D-proline], 5.33.
For `O=C(O)[C@@H]1CSCN1S(=O)(=O)c1cc(Br)cc(Br)c1O` [Example 48, (4R)-3-[(3,5-dibromo-2-hydroxyphenyl)sulfonyl]-1,3-thiazolidine-4-carboxylic acid] the value was 6.34; for `O=C(O)[C@H]1CCCN1S(=O)(=O)c1cc(Br)cc(Cl)c1O` [Example 22, 1-[(5-bromo-3-chloro-2-hydroxyphenyl)sulfonyl]-D-proline], 5.32; for `CC(=O)[C@@H]1CCCN1S(=O)(=O)c1cc(Cl)cc(Cl)c1O` [Example 16, 1-{(2S)-1-[(3,5-dichloro-2-hydroxyphenyl)sulfonyl]pyrrolidin-2-yl}ethanone], 5.58.
`O=C(O)[C@@H]1CCCN1S(=O)(=O)c1cc(F)cc(Cl)c1O` [Example 14, 1-[(3-chloro-5-fluoro-2-hydroxyphenyl)sulfonyl]-L-proline]: the pIC50 was 5.69.
To `O=C(O)[C@H]1CCCCN1S(=O)(=O)c1cc(Cl)c(Cl)c(Cl)c1O` [Example 38, (2R)-1-[(3,4,5-trichloro-2-hydroxyphenyl)sulfonyl]piperidine-2-carboxylic acid] belongs 6.42; to `O=S(=O)(c1cc(Cl)cc(Cl)c1O)N1CCSC1` [Example 52, 2,4-dichloro-6-(1,3-thiazolidin-3-ylsulfonyl)phenol], 5.63; to `O=C(O)[C@H]1C[C@H](O)CN1S(=O)(=O)c1cc(Cl)c(Cl)c(Cl)c1O` [Example 15, (4S)-4-hydroxy-1-[(3,4,5-trichloro-2-hydroxyphenyl)sulfonyl]-D-proline], 5.91.
For `Cc1cc(N)c(S(=O)(=O)N2C[C@@H](O)C[C@@H]2C(=O)O)cc1Cl` [Example 19, (4S)-1-[(2-amino-5-chloro-4-methylphenyl)sulfonyl]-4-hydroxy-D-proline] the value was 5.39.
For `O=C(O)[C@@H]1CSCN1S(=O)(=O)c1cc(Cl)cc(Cl)c1O` [Example 47, (4R)-3-[(3,5-dichloro-2-hydroxyphenyl)sulfonyl]-1,3-thiazolidine-4-carboxylic acid] the value was 6.62; for `O=C(O)[C@H]1CCCN1S(=O)(=O)c1cc(Cl)cc(Cl)c1O` [Example 31, 1-[(3,5-dichloro-2-hydroxyphenyl)sulfonyl]-D-proline], 5.19; for `O=C(O)[C@H]1CSCN1S(=O)(=O)c1cc(Cl)cc(Cl)c1O` [Example 51, (4S)-3-[(3,5-dichloro-2-hydroxyphenyl)sulfonyl]-1,3-thiazolidine-4-carboxylic acid], 5.77.
As for `Cc1cc(S(=O)(=O)N2CSC[C@@H]2C(=O)O)c(N)cc1Cl` [Example 55, (4S)-3-[(2-amino-4-chloro-5-methylphenyl)sulfonyl]-1,3-thiazolidine-4-carboxylic acid], the pIC50 is 5.12.
On to `O=C(O)[C@@H]1CCCCN1S(=O)(=O)c1cc(Cl)c(Cl)c(Cl)c1O` [Example 37, (2S)-1-[(3,4,5-trichloro-2-hydroxyphenyl)sulfonyl]piperidine-2-carboxylic acid], for which the pIC50 was 7.10.
